Test results published in ChEMBL document CHEMBL1147562, “Synthesis of potent and highly selective nonguanidine azetidinone inhibitors of human tryptase” (Bioorg Med Chem Lett, 2004).

Key:
Tryptase = Tryptase (Homo sapiens, UniProt Q9BZJ3+Q15661+Q9NRR2); test: Inhibitory activity of compound against human tryptase was determined; format: protein assay
Coagulation factor X = Coagulation factor X (Homo sapiens, UniProt P00742); test: Inhibitory activity of compound against Coagulation factor X was determined
Sequence of Coagulation factor X (P00742 41-179 limits assumed): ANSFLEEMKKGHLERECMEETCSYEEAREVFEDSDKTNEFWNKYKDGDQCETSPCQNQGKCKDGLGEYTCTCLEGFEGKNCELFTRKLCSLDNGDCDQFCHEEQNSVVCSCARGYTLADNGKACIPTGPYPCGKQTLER
Sequence of Coagulation factor X (P00742 235-488 limits assumed): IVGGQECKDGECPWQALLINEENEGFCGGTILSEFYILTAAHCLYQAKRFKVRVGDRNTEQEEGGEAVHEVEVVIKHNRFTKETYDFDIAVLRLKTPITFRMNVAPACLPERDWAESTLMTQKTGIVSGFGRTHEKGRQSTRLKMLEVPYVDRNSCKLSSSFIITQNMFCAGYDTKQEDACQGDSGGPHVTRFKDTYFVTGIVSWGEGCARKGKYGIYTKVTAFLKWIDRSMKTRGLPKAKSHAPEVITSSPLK

Plasminogen = Plasminogen (Rattus norvegicus, UniProt Q01177); test: Inhibitory activity of compound against Plasmin was determined
Sequence of Plasminogen (Q01177 97-581 limits assumed): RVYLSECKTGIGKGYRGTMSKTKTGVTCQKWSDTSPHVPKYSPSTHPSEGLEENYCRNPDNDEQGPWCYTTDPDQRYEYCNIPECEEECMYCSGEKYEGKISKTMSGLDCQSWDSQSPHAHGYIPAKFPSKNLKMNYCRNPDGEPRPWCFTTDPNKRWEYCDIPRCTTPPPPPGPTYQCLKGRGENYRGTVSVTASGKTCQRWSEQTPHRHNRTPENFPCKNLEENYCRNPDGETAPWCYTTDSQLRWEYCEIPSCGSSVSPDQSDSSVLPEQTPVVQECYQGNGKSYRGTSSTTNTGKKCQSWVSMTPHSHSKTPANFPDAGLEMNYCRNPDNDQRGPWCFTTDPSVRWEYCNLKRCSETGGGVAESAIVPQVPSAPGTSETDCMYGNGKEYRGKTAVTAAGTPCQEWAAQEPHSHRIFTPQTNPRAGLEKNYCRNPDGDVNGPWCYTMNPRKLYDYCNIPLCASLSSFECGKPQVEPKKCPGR
Sequence of Plasminogen (Q01177 582-812 limits assumed): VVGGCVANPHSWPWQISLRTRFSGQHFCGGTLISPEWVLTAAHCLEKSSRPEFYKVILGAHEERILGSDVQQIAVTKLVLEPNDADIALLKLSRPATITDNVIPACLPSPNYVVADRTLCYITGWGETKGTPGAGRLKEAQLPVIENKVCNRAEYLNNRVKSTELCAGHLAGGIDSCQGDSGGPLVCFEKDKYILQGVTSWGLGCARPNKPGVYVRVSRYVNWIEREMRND

Prothrombin = Prothrombin (Homo sapiens, UniProt P00734); test: Inhibitory activity of compound against Thrombin was determined
[1] = target: Tissue-type plasminogen activator (Homo sapiens, UniProt P00750); test: Inhibitory activity of compound against tissue type plasminogen activator was determined
Sequence of Tissue-type plasminogen activator (P00750 whole entry): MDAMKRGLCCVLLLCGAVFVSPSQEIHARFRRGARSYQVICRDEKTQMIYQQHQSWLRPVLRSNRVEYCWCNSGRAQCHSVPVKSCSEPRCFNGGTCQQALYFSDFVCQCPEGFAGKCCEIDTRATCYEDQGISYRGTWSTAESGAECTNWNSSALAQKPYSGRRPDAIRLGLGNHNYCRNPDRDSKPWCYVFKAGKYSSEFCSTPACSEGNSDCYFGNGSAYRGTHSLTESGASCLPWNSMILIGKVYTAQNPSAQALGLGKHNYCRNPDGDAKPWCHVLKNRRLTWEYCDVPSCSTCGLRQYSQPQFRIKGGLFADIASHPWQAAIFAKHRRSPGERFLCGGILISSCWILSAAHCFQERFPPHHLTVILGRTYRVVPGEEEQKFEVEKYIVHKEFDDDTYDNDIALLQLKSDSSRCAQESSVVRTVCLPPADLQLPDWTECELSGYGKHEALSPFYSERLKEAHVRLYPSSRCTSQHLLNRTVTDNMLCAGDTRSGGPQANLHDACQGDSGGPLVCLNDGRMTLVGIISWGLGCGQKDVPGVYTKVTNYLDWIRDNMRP

Serine protease 1 = Serine protease 1 (Homo sapiens, UniProt P07477); test: Inhibitory activity of compound against Trypsin was determined
Sequence of Serine protease 1 (P07477 whole entry): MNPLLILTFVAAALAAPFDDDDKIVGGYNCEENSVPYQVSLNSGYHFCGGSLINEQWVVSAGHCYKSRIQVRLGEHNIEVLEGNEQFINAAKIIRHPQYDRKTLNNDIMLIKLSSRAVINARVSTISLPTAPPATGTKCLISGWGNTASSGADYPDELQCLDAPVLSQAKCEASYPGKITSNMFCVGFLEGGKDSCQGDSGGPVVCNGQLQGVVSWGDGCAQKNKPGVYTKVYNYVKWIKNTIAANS

[2] = target: Urokinase-type plasminogen activator (Homo sapiens, UniProt P00749); test: Inhibitory activity of compound against Urokinase-type plasminogen activator was determined
[3] = Half-life of compound was determined at pH 7; format: ADME
[4] = Half-life of compound was determined at pH 9; format: ADME

| SMILES | IC50 (Tryptase) [nM] | further results |
| --- | --- | --- |
| CC(C)C(OC(=O)N1CCN(C(=O)N2C(=O)[C@H](CCC3CCNCC3)[C@H]2C(=O)O)CC1)C(C)C | 1214 | – |
| N=C(N)N1CCC[C@H](C[C@H]2C(=O)N(C(=O)N3CCN(C(=O)CCCCCc4ccccc4)CC3)[C@@H]2C(=O)O)C1 | < 1.7 | – |
| CC(C)C(OC(=O)N1CCN(C(=O)N2C(=O)[C@H](CCCN)[C@H]2C(=O)O)CC1)C(C)C | > 33000 | – |
| O=C(O)[C@@H]1[C@@H](CC2CCNCC2)C(=O)N1C(=O)Nc1ccccc1 | 147 | – |
| O=C(O)[C@@H]1[C@@H](CCC2CCCNC2)C(=O)N1C(=O)N1CCN(C(=O)CCCCCc2ccccc2)CC1 (stereo not given in full) | 1.8 | IC50 (Coagulation factor X): > 33000 nM; IC50 (Plasminogen): 309 nM; IC50 (Prothrombin): > 33000 nM; IC50 [1]: > 33000 nM; IC50 (Serine protease 1): 10000 nM; IC50 [2]: > 33000 nM |
| CC(C)C(OC(=O)N1CCN(C(=O)N2C(=O)[C@H](Cc3cccc(CN)c3)[C@H]2C(=O)O)CC1)C(C)C | 19 | – |
| N=C(N)N1CCC(C[C@H]2C(=O)N(C(=O)Nc3ccccc3)[C@@H]2C(=O)O)CC1 | 515 | – |
| CC(C)C(OC(=O)N1CCN(C(=O)N2C(=O)[C@H](CC3CCNC3)[C@H]2C(=O)O)CC1)C(C)C (stereo not given in full) | 2605 | – |
| CC(C)C(OC(=O)N1CCN(C(=O)N2C(=O)[C@H](Cc3ccnc(N)c3)[C@H]2C(=O)O)CC1)C(C)C | 61 | – |
| CC(C)C(OC(=O)N1CCN(C(=O)N2C(=O)[C@H](Cc3ccc(CN)cc3)[C@H]2C(=O)O)CC1)C(C)C | 211 | – |
| CC(C)C(OC(=O)N1CCN(C(=O)N2C(=O)[C@H](CCCCN)[C@H]2C(=O)O)CC1)C(C)C | 7 | – |
| O=C(O)[C@@H]1[C@@H](CC2CCNCC2)C(=O)N1C(=O)N1CCN(C(=O)CCCCCc2ccccc2)CC1 | 1 | half-life [3]: > 48 h; half-life [4]: 35 h |
| CC(C)C(OC(=O)N1CCN(C(=O)N2C(=O)[C@H](CCCCCCN)[C@H]2C(=O)O)CC1)C(C)C | 32 | – |
| CC(C)C(OC(=O)N1CCN(C(=O)N2C(=O)[C@H](Cc3ccc(N)nc3)[C@H]2C(=O)O)CC1)C(C)C | 1053 | – |
| CC(C)C(OC(=O)N1CCN(C(=O)N2C(=O)[C@H](CC3CCCNC3)[C@H]2C(=O)O)CC1)C(C)C (stereo not given in full) | 17899 | – |
| CC(C)C(OC(=O)N1CCN(C(=O)N2C(=O)[C@H](CCCCCN)[C@H]2C(=O)O)CC1)C(C)C | 34 | – |
| N=C(N)N1CCC[C@@H](C[C@H]2C(=O)N(C(=O)N3CCN(C(=O)CCCCCc4ccccc4)CC3)[C@@H]2C(=O)O)C1 | < 1.7 | – |
| CC(C)C(OC(=O)N1CCN(C(=O)N2C(=O)[C@H](CC3CCNCC3)[C@H]2C(=O)O)CC1)C(C)C | 29 | IC50 (Coagulation factor X): > 33000 nM; IC50 (Plasminogen): 6220 nM; IC50 (Prothrombin): > 33000 nM; IC50 [1]: > 33000 nM; IC50 (Serine protease 1): 935 nM; IC50 [2]: 7000 nM |
| NCCCC[C@H]1C(=O)N(C(=O)N2CCN(C(=O)CCCCCc3ccccc3)CC2)[C@@H]1C(=O)O | < 1.7 | – |
| CC(C)C(OC(=O)N1CCN(C(=O)N2C(=O)[C@H](CCCCN=C(N)N)[C@H]2C(=O)O)CC1)C(C)C (single isomer, unassigned) | 39 | – |
| Nc1ccccn1 [2-AMINOPYRIDINE] | – | pKa (physchem): 7 |
